Data from PubChem BioAssay AID1259407 (Chemical Carcinogenesis Research Information System (CCRIS), 2018).
Active and inactive are the calls of the source. The rule behind the calls is not given here.

Test system: CCRIS mutagenicity, Ames/micronucleus/aberration tests
Assay: CCRIS mutagenicity studies
[1] = Test System: AMES SALMONELLA TYPHIMURIUM, Strain/Indicator: TA98, Metabolic Activation: NONE, Method: STANDARD PLATE

## C=C1C[C@@]23CC[C@H]4[C@@](C)(CCC[C@@]4(C)C(=O)O[C@@H]4O[C@H](CO)[C@@H](O)[C@H](O)[C@H]4O)[C@@H]2CC[C@]1(O[C@@H]1O[C@H](CO)[C@@H](O)[C@H](O)[C@H]1O[C@@H]1O[C@H](CO)[C@@H](O)[C@H](O)[C@H]1O)C3
Test System: AMES SALMONELLA TYPHIMURIUM, Strain/Indicator: TA97, Metabolic Activation: NONE, Method: PREINCUBATION
  mutagenic call: inactive; negative
Test System: AMES SALMONELLA TYPHIMURIUM, Strain/Indicator: TA97, Metabolic Activation: RAT, LIVER, S-9, PCB, Method: PREINCUBATION
  mutagenic call: inactive; negative
Test System: AMES SALMONELLA TYPHIMURIUM, Strain/Indicator: TA98, Metabolic Activation: RAT, LIVER, S-9, PCB, Method: PREINCUBATION
  mutagenic call: inactive; negative
Test System: AMES SALMONELLA TYPHIMURIUM, Strain/Indicator: TA98, Metabolic Activation: RAT, LIVER, S-9, SODIUM PHENOBARBITAL AND 5,6-BENZOFLAVONE, Method: PREINCUBATION
  mutagenic call: active; positive
Test System: AMES SALMONELLA TYPHIMURIUM, Strain/Indicator: TA100, Metabolic Activation: NONE, Method: PREINCUBATION
  mutagenic call: inactive; negative
Test System: AMES SALMONELLA TYPHIMURIUM, Strain/Indicator: TA100, Metabolic Activation: RAT, LIVER, S-9, PCB, Method: PREINCUBATION
  mutagenic call: inactive; negative
Test System: AMES SALMONELLA TYPHIMURIUM, Strain/Indicator: TA100, Metabolic Activation: RAT, LIVER, S-9, SODIUM PHENOBARBITAL AND 5,6-BENZOFLAVONE, Method: PREINCUBATION
  mutagenic call: inactive; negative
Test System: AMES SALMONELLA TYPHIMURIUM, Strain/Indicator: TA102, Metabolic Activation: NONE, Method: PREINCUBATION
  mutagenic call: inactive; negative
Test System: AMES SALMONELLA TYPHIMURIUM, Strain/Indicator: TA102, Metabolic Activation: RAT, LIVER, S-9, PCB, Method: PREINCUBATION
  mutagenic call: inactive; negative
Test System: AMES SALMONELLA TYPHIMURIUM, Strain/Indicator: TA104, Metabolic Activation: NONE, Method: PREINCUBATION
  mutagenic call: inactive; negative
Test System: AMES SALMONELLA TYPHIMURIUM, Strain/Indicator: TA104, Metabolic Activation: RAT, LIVER, S-9, PCB, Method: PREINCUBATION
  mutagenic call: inactive; negative
Test System: AMES SALMONELLA TYPHIMURIUM, Strain/Indicator: TM677, Metabolic Activation: RAT, LIVER, S-9, AROCLOR 1254, Method: PREINCUBATION
  mutagenic call: inactive; negative

## c1ccc2c(c1)ccc1c3cccnc3ccc21
Test System: AMES SALMONELLA TYPHIMURIUM, Strain/Indicator: TA98, Metabolic Activation: RAT, LIVER, S-9, AROCLOR 1254, Method: STANDARD PLATE
  mutagenic call: active; positive
Test System: AMES SALMONELLA TYPHIMURIUM, Strain/Indicator: TA100, Metabolic Activation: RAT, LIVER, S-9, AROCLOR 1254, Method: STANDARD PLATE
  mutagenic call: active; positive

## CC(=O)O.CC(=O)O.[O]=[U]=[O]
Test System: Chinese hamster ovary cells, Strain/Indicator: EM9 (HPRT)/6-Thioguanine, Metabolic Activation: None
  mutagenic call: active; positive

## O=[N+]([O-])c1ccc2cccc3c2c1CC3
[1]
  mutagenic call: active; positive

## COC(=O)c1cc2ccc3ccc[n+](C)c3c2[nH]1
[1]
  mutagenic call: inactive; negative
Test System: E. COLI, Strain/Indicator: WP2 TM9, Metabolic Activation: NONE, Method: STANDARD PLATE
  mutagenic call: inactive; negative
